Measured values taken from publication PMC6332220, “Synthesis, Characterization and Biological Evaluation of Some Quinoxaline Derivatives: A Promising and Potent New Class of Antitumor and Antimicrobial Agents” (Molecules, 2015).
Values after ≈ are worked out from the molar mass of the structure shown.

What was measured:
Escherichia coli [1] = experiment: MIC by broth dilution, Escherichia coli; type: cell-based; conditions: Gram negative, 0.98-125 µg/mL
Description: (§1) In this study, MIC (quantitative method) was used for evaluation of the antimicrobial activity of tested compounds. Screening was evaluated in vitro using the Broth dilution method according to CLSI [45]. All the bacteria were incubated and activated at 30 °C for 24 h inoculation into nutrient broth and the fungi were incubated in malt extract broth for 48 h. The compounds were dissolved in DMSO and then diluted using […] Mueller-Hinton broth. […] In each case triplicate tests were performed and the average was taken as the final reading. The tubes were then inoculated with the test organisms, grown in their suitable broth at 37 °C for 24 h for tested microorganisms (1 × 10^8 CFU/mL for bacteria and 1 × 10^6 CFU/mL of fungi), each 5 mL received 0.1 mL of the above inoculum and incubated at 37 °C for 24 h.

Pseudomonas aeruginosa [2] = experiment: MIC by broth dilution, Pseudomonas aeruginosa; type: cell-based; conditions: Gram negative, 0.98-125 µg/mL
Description: as §1

Aspergillus fumigatus = experiment: Disk diffusion, Aspergillus fumigatus; type: cell-based; conditions: Fungi, 8.0 mm disks, 10 μL
Description: (§2) The disk diffusion method was used for determination of the antimicrobial activity using ampicillin, gentamicin and amphotericin B as reference drugs. The results were recorded for each compounds as the average diameter as inhibition zones (IZ) of bacterial or fungal growth around the discs in mm as shown in Table 2.
(§3) Antimicrobial activities were carried out against highly pathogenic strains; three strains of Gram positive bacteria (Bacillus subtilis, Staphylococcus aureus and Streptococcus faecalis), four strains of Gram negative bacteria (Escherichia coli, Neisseria gonorrhoeae, Pseudomonas aeruginosa and Salmonella typhimurium) and three fungi strains (Aspergillus flavus, Aspergillus fumigatus and Candida albicans) isolated from primary agar plates. Antimicrobial activity of the tested samples was determined using a modified Kriby-Bauer disk diffusion method. Briefly, 100 µL of the test bacteria/fungi were grown in 10 mL of fresh media until they reached a count approximately 10^8 cells/mL for bacteria or 10^5 cells/mL for fungi. 100 µL of microbial suspension was spread onto agar plates corresponding to the broth in which they were maintained. The inoculated plates of bacterial strains were incubated at 35–37 °C for 24–48 h, while the inoculated plates of fungal strains such as A. flavus and A. fumigatus were incubated at 25 °C for 48 h and yeast as C. albicans was incubated at 30 °C for 24–48 h.
(§4) The agar disk diffusion (qualitative) method was used in this investigation for determination of the preliminary antibacterial and antifungal activities. The agar used was Mueller-Hinton agar plates that are rigorously tested for composition and pH. Further the depth of the agar in the plate is a factor to be considered in the disk diffusion method.
(§5) Reference drugs: ampicillin was used as a standard antibacterial drug for Gram positive bacteria, gentamicin as a standard antibacterial drug for Gram negative bacteria and amphotericin B as antifungal standard drug.
(§6) Bacterial and fungal strains were spread onto the surface of the agar plates using sterile cotton swabs. For evaluation of antibacterial activities, blank paper disks (Schleicher & Schuell, Alicante, Spain) with a diameter of 8.0 mm were saturated with 10 μL of tested concentration of the stock solutions. Disks were dried and then placed onto inoculated agar plates. The plates of bacterial strains were reincubated at 35–37 °C for 24–48 h, while the plates of fungal strains such as A. flavus and A. fumigatus were reincubated at 25 °C for 48 h and yeast as C. albicans was reincubated at 30 °C for 24–48 h as mentioned above. […] For an accurate analysis, tests were run in triplicate for each strain to avoid any error as described in Table 2.
(§7) Disk diffusion method for filamentous fungi testing by using approved standard method (M02-A11) developed by the CLSI for evaluating the susceptibilities of filamentous fungi to antifungal agents. Disk diffusion method for yeasts developed by using approved standard method (M44-A2) by the CLSI [44]. Agar-based methods such as disk diffusion can be good alternatives because they are simpler and faster than broth-based methods.

[3] = system: NCI-H460 (non-small cell lung cancer); experiment: In vitro cytotoxicity, SRB cell growth assay, NCI-H460; conditions: for IC50: Homo sapiens, NCI-H460, 48 h, read-out: IC50 (μg/mL) NCI-H460
Description: (§8) The in vitro cytotoxic activity of the newly synthesized compounds against human breast cell line (MCF7), non-small cell lung cancer NCIH460, CNS cancer SF-268 and WI 38 (normal fibroblast cells) were evaluated using doxorubicin as the reference drug according to the method reported by Skehan et al..
(§9) The newly synthesized compounds were evaluated in vitro against three human cancer cell lines; which are MCF-7 (breast adenocarcinoma), NCI-H460 (non-small cell lung cancer) and SF-268 (CNS cancer), and WI 38 (normal fibroblast cells) were used in this study. MCF-7 was obtained from the European Collection of Cell Cultures (ECACC, Salisbury, UK) but NCI-H460, SF-268 and WI 38 were kindly provided by the National Cancer Institute (NCI, Cairo, Egypt). They grow as monolayer and routinely maintained RPMI-1640 medium supplemented with 5% heat inactivated fetal bovine serum (FBS), 2 mM glutamine and antibiotics (penicillin 100 U/mL, streptomycin 100 µg/mL), at 37 °C in a humidified atmosphere containing 5% CO2. Exponentially growing cells were obtained by plating 1.5 × 10^5 cells/mL for MCF-7 and SF-268, and 0.75 × 10^4 cells/mL for NCI-H460 followed by 24 h of incubation. The effect of the vehicle solvent (DMSO) on the growth of these cell lines was evaluated in all experiments by exposing untreated control cells to the maximum concentration (0.5%) of DMSO used in each assay.
(§10) The effect of compounds on the in vitro growth of human tumor cell lines were evaluated according to the procedure adopted by the National Cancer Institute ([…]) in the “In vitro Anticancer Drug Discovery Screen” that uses the protein-binding dye sulforhodamine B (SRB) to assess cell growth. In the assay protocol, all cells were incubated at 37 °C under humidified atmosphere containing 5% CO2. Briefly, exponentially cells growing in 96-well plates were then exposed for 48 h to five serial concentrations of each compound, starting from a maximum concentration of 150 μg/mL. Following this exposure period adherent cells were fixed, washed and stained. The bound stain was solubilized and the absorbance was measured at 492 nm in a plate reader (Bio-Tek Instruments Inc., Power wave XS, Winston, NC, USA). For each test compound and cell line, a dose response curve was obtained and the inhibitory concentration of 50% (IC50), corresponding to the concentration of the compounds that inhibited 50% of the net cell growth was calculated as described elsewhere. Doxorubicin was used as a positive control and tested in the same manner.

Bacillus subtilis [4] = experiment: Disk diffusion, Bacillus subtilis; type: cell-based; conditions: Gram positive, 8.0 mm disks, 10 μL
Description: as §2, §3, §4, §5, §6

Salmonella typhimurium [5] = experiment: MIC by broth dilution, Salmonella typhimurium; type: cell-based; conditions: Gram negative, 0.98-125 µg/mL
Description: as §1

Escherichia coli [6] = experiment: Disk diffusion, Escherichia coli; type: cell-based; conditions: Gram negative, 8.0 mm disks, 10 μL
Description: as §2, §3, §4, §5, §6

Staphylococcus aureus [7] = experiment: Disk diffusion, Staphylococcus aureus; type: cell-based; conditions: Gram positive, 8.0 mm disks, 10 μL
Description: as §2, §3, §4, §5, §6

Neisseria gonorrhoeae = experiment: Disk diffusion, Neisseria gonorrhoeae; type: cell-based; conditions: Gram negative, 8.0 mm disks, 10 μL
Description: as §2, §3, §4, §5, §6

SF-268 (CNS cancer) = experiment: In vitro cytotoxicity, SRB cell growth assay, SF-268; conditions: for IC50: Homo sapiens, SF-268, 48 h, read-out: IC50 (μg/mL) SF-268
Description: as §8, §9, §10

Candida albicans = experiment: Disk diffusion, Candida albicans; type: cell-based; conditions: Fungi, 8.0 mm disks, 10 μL
Description: as §2, §3, §4, §5, §6, §7

Bacillus subtilis [8] = experiment: MIC by broth dilution, Bacillus subtilis; type: cell-based; conditions: Gram positive, 0.98-125 µg/mL
Description: as §1

Staphylococcus aureus [9] = experiment: MIC by broth dilution, Staphylococcus aureus; type: cell-based; conditions: Gram positive, 0.98-125 µg/mL
Description: as §1

[10] = system: WI 38 (normal fibroblast cells); experiment: In vitro cytotoxicity, SRB cell growth assay, normal cells WI 38; type: cell-based, human; conditions: 48 h exposure, non-cytotoxic = IC50 >100 μg/mL; for IC50: Homo sapiens, WI-38, 48 h
Description: as §8, §9, §10

[11] = system: MCF-7 (breast adenocarcinoma); experiment: In vitro cytotoxicity, SRB cell growth assay, MCF-7; conditions: for IC50: Homo sapiens, MCF7, 48 h, read-out: IC50 (μg/mL) MCF-7
Description: as §8, §9, §10

Pseudomonas aeruginosa [12] = experiment: Disk diffusion, Pseudomonas aeruginosa; type: cell-based; conditions: Gram negative, 8.0 mm disks, 10 μL
Description: as §2, §3, §4, §5, §6

Streptococcus faecalis [13] = experiment: MIC by broth dilution, Streptococcus faecalis; type: cell-based; conditions: Gram positive, 0.98-125 µg/mL
Description: as §1

Aspergillus flavus = experiment: Disk diffusion, Aspergillus flavus; type: cell-based; conditions: Fungi, 8.0 mm disks, 10 μL
Description: as §2, §3, §4, §5, §6, §7

Salmonella typhimurium [14] = experiment: Disk diffusion, Salmonella typhimurium; type: cell-based; conditions: Gram negative, 8.0 mm disks, 10 μL
Description: as §2, §3, §4, §5, §6

Streptococcus faecalis [15] = experiment: Disk diffusion, Streptococcus faecalis; type: cell-based; conditions: Gram positive, 8.0 mm disks, 10 μL
Description: as §2, §3, §4, §5, §6

Molecule	Inhibition Zone Diameter (IZ) (mm) Aspergillus fumigatus (Aspergillus fumigatus)	Inhibition Zone Diameter (IZ) (mm) Bacillus subtilis (Bacillus subtilis [4]) [mm]	Inhibition Zone Diameter (IZ) (mm) Escherichia coli (Escherichia coli [6]) [mm]	Inhibition Zone Diameter (IZ) (mm) Staphylococcus aureus (Staphylococcus aureus [7]) [mm]	Inhibition Zone Diameter (IZ) (mm) Neisseria gonorrhoeae (Neisseria gonorrhoeae)	Inhibition Zone Diameter (IZ) (mm) Candida albicans (Candida albicans)	Inhibition Zone Diameter (IZ) (mm) Pseudomonas aeruginosa (Pseudomonas aeruginosa [12]) [mm]	Inhibition Zone Diameter (IZ) (mm) Aspergillus flavus (Aspergillus flavus)	Inhibition Zone Diameter (IZ) (mm) Salmonella typhimurium (Salmonella typhimurium [14]) [mm]	Inhibition Zone Diameter (IZ) (mm) Streptococcus faecalis (Streptococcus faecalis [15]) [mm]	melting point [°C]	IC50 [3] [µg/mL]	IC50 (SF-268 (CNS cancer)) [µg/mL]	IC50 [10] [mg/L]	IC50 [11] [µg/mL]	also measured
9-Bromo-di-1,2,4-triazolo[1,5-a:5′,1′-c]quinoxaline [Compound 13]	R (R (IZ = 0 mm))	17	17	16	R (R (IZ = 0 mm))	R (R (IZ = 0 mm))	19	R (R (IZ = 0 mm))	17	20						Minimum Inhibitory Concentration (MIC) (µg/mL) Escherichia coli (Escherichia coli [1]): 7.81 µg/mL; Minimum Inhibitory Concentration (MIC) (µg/mL) Pseudomonas aeruginosa (Pseudomonas aeruginosa [2]): 125 µg/mL; IC50 (μg/mL) NCI-H460 ([3]; NCI-H460, SRB, 48 h exposure): 36.05 ± 5.23 µg/mL; Minimum Inhibitory Concentration (MIC) (µg/mL) Salmonella typhimurium (Salmonella typhimurium [5]): 3.9 µg/mL; IC50 (μg/mL) SF-268 (SF-268 (CNS cancer); SF-268, SRB, 48 h exposure): 29.35 ± 7.01 µg/mL; Minimum Inhibitory Concentration (MIC) (µg/mL) Bacillus subtilis (Bacillus subtilis [8]): 1.95 µg/mL; Minimum Inhibitory Concentration (MIC) (µg/mL) Staphylococcus aureus (Staphylococcus aureus [9]): 7.81 µg/mL; IC50 (μg/mL) WI 38 [10]: 18.62 ± 1.21 µg/mL; IC50 (μg/mL) MCF-7 ([11]; MCF-7, SRB, 48 h exposure): 37.64 ± 6.72 µg/mL; Minimum Inhibitory Concentration (MIC) (µg/mL) Streptococcus faecalis (Streptococcus faecalis [13]): 62.5 µg/mL
NNc1nc2ccc(Br)cc2n2nnnc12 [Compound 10]																MIC (Escherichia coli [1]; Escherichia coli, 24 h, read-out: Minimum Inhibitory Concentration (MIC) (µg/mL) Escherichia coli): 3.9 µg/mL (≈ 13.9 µM); MIC (Pseudomonas aeruginosa [2]; Pseudomonas aeruginosa, 24 h, read-out: Minimum Inhibitory Concentration (MIC) (µg/mL) Pseudomonas aeruginosa): 125 µg/mL (≈ 446 µM); MIC (Salmonella typhimurium [5]; Salmonella enterica, TYPHIMURIUM, 24 h, read-out: Minimum Inhibitory Concentration (MIC) (µg/mL) Salmonella typhimurium): 1.95 µg/mL (≈ 6.96 µM); MIC (Bacillus subtilis [8]; Bacillus subtilis, 24 h, read-out: Minimum Inhibitory Concentration (MIC) (µg/mL) Bacillus subtilis): 0.98 µg/mL (≈ 3.5 µM); MIC (Staphylococcus aureus [9]; Staphylococcus aureus, 24 h, read-out: Minimum Inhibitory Concentration (MIC) (µg/mL) Staphylococcus aureus): 0.98 µg/mL (≈ 3.5 µM); MIC (Streptococcus faecalis [13]; Enterococcus faecalis, 24 h, read-out: Minimum Inhibitory Concentration (MIC) (µg/mL) Streptococcus faecalis): 0.98 µg/mL (≈ 3.5 µM)
Clc1ccc(C=NNc2nc3cc(Br)ccc3nc2Cl)cc1 [Compound 8, 6-Bromo-2-chloro-3-[2-(4-chlorobenzylidene)hydrazinyl]quinoxaline]	R (R (IZ = 0 mm))	9	11	9	9 mm	R (R (IZ = 0 mm))	9	R (R (IZ = 0 mm))	7	10	187 to 189	26.6 ± 2.63 (≈ 67.2 µM)	35.3 ± 12.8 (≈ 89.2 µM)	10.6 ± 5.51 (≈ 26.7 µM)	42.2 ± 2.46 (≈ 106 µM)	
Cc1cc(C)n(-c2nc3cc(Br)ccc3nc2Cl)n1 [Compound 6, 6-Bromo-2-chloro-3-(3,5-dimethyl-1H-pyrazol-1-yl)quinoxaline]	R (R (IZ = 0 mm))	11	11	9	11 mm	R (R (IZ = 0 mm))	9	R (R (IZ = 0 mm))	8	11	81 to 83	30.5 ± 10.8 (≈ 90.3 µM)	26.5 ± 2.87 (≈ 78.5 µM)	28.2 ± 0.87 (≈ 83.7 µM)	22.4 ± 10.4 (≈ 66.4 µM)	
